This data set can be described thus: Fluorescence spectrum / intensity of dye solutions, dye complexes and microsphere dispersions (multi-function microplate reader, λex=730 nm). The format is physicochemical. Particulars: aqueous solution. Here is the method:
0.5 mg of indocyanine green (Dianogreen Injection) (ICG, Jeil Pharmaceutical Co., Ltd.) as a near-infrared fluorescent dye was dissolved in 1 mL of distilled water, and then diluted with distilled water to prepare an indocyanine green solution at a concentration of 30 μM. For the indocyanine green/human serum albumin (HSA, SK Plasma) complex for comparison of fluorescence signals with the indocyanine green solution, 0.5 mg of indocyanine green powder was dissolved in a mixed solution of 0.214 mL of human serum albumin solution (20% concentration) and 0.786 mL of distilled water, and then diluted with distilled water to prepare an indocyanine green/human serum albumin complex (ICG-HSA) at a concentration of 30 μM. To compare fluorescence spectra, 200 μL of each prepared solution was aliquoted and placed in a 96-well plate, and the fluorescence spectrum (λex=730 nm) was measured using a multi-function microplate reader (SPARK, Tecan Trading AG, Zurich, Switzerland).
(§1) To compare fluorescence signals of the prepared the microspheres and the indocyanine green/human serum albumin complex, the same concentration of indocyanxhine green complex solution and dispersion of microparticles were prepared. […] Using the information on the content of indocyanine green in PLGA microspheres evaluated by the quantification, a dispersion was prepared by adding indocyanine green to 0.3 mL of distilled water so that the concentration was 30 μM. To compare fluorescence spectra, 200 μL of each of the prepared solution and dispersion was aliquoted and placed in a 96-well plate, and the fluorescence spectrum (λex=730 nm) was measured using a multi-function microplate reader (SPARK, Tecan Trading AG, Zurich, Switzerland).
as §1, with “To compare the fluorescence signals” for “To compare fluorescence signals”, “the prepared microspheres and” for “the prepared the microspheres and”, “multi-function microplate reader. Fluorescence images were analyzed using fluorescence imaging equipment (IVIS Lumina XR, Xenogen Corporation-Caliper, CA, USA) after putting 300μl of the same solution into a microtube (λex=780/20 nm, λem=845/40 nm). […]” for “multi-function microplate reader (SPARK, Tecan Trading AG, Zurich, Switzerland).”

The compound `CC1(C)C(/C=C/C2=C(Oc3ccc(S(=O)(=O)O)cc3)C(=C/C=C3/N(CCCCS(=O)(=O)O)c4ccc(S(=O)(=O)[O-])cc4C3(C)C)/CCC2)=[N+](CCCCCC(=O)O)c2ccc(S(=O)(=O)O)cc21` [IRDye 800CW, IRDye® 800CW carboxylate] displayed an emission peak of 806 nm.

As for `C[N+]1=C(C=CC2=CC(=CC=C3N(CCCCCC(=O)O)c4ccc(S(=O)(=O)[O-])cc4C3(C)C)CCC2)C(C)(C)c2cc(S(=O)(=O)[O-])ccc21.[K+]` [Cy7, sulfo-cyanine7 carboxylic acid], the emission peak is given as 780 nm. Compound Flamma774 carboxylic acid displayed an emission peak of 812 nm.

Regarding `C[N+]1=C(C=CC2=CC(=CC=C3N(CCCCCC(=O)[O-])c4ccc5c(S(=O)(=O)[O-])cc(S(=O)(=O)[O-])cc5c4C3(C)C)CCC2)C(C)(C)c2c1ccc1c(S(=O)(=O)O)cc(S(=O)(=O)[O-])cc21.[K+].[K+].[K+]` [Cy7.5, sulfo-cyanine7.5 carboxylic acid], the emission peak is given as 810 nm.
